Results from US6372769B1 (priority 1999, dated 2002).
Several values for one entry are separate records, joined by “and”; a condition that tells them apart may be missing. Identical values can stand only once.

Tests used:
Conditions in all cases: in vivo
[1] = system: Erysiphe graminis f. sp. tritici
[2] = system: Puccinia recondita f. sp. tritici
[3] = system: Septoria nodorum
[4] = system: Pyricularia oryzae
[5] = system: Sphaerotheca fulginea
[6] = system: Plasmopara viticola

SMILES | percent disease control, Wheat Powdery Mildew (WPM) [1] | percent disease control, Wheat Leaf Rust (WLR) [2] | plant damage (necrosis / death of plant) in SNW test [3] | plant damage (necrosis / death of plant) in RB test [4] | percent disease control, Cucumber Powdery Mildew (CPM) [5] | percent disease control, Grape Downy Mildew (GDM) [6] | percent disease control, Septoria on Wheat (SNW) [3] | percent disease control, Rice Blast (RB) [4]
O=C(Nc1c(Cl)c(Cl)c(Cl)c(Cl)c1Cl)c1sc(C(F)(F)F)nc1C(F)(F)F [Compound 2] | 80% and 75% and 50% | 100% and 99% and 90% |  |  |  |  |  | 
O=C(Nc1c(Br)cc(Br)cc1Br)c1sc(C(F)(F)F)nc1C(F)(F)F [Compound 3] | 85% and 80% and 50% | 99% and 90% and 85% |  |  |  |  |  | 
O=C(Nc1cc(F)c(F)c(F)c1F)c1sc(C(F)(F)F)nc1C(F)(F)F [Compound 4] |  |  | —/5 | 50/5 | 0% and 0/5% |  |  | 
O=C(Nc1c(Br)cc(OC(F)(F)F)cc1Br)c1sc(C(F)(F)F)nc1C(F)(F)F [Compound 5] | 95% and 80% | 100% and 95% |  |  |  | 0% | 80% and 75% | 95% and 90%
